The values that follow come from US20260092061A1, “COMPOUNDS FOR TARGETED PROTEIN DEGRADATION” (Amphista Therapeutics Limited, priority 2022, published 2026).

For orientation: DC50 means the midpoint of the concentration-degradation curve.

In experiment [1] the target is T1, BRD9 (Homo sapiens, UniProt Q9H8M2).
T1 sequence (Q9H8M2 1-597): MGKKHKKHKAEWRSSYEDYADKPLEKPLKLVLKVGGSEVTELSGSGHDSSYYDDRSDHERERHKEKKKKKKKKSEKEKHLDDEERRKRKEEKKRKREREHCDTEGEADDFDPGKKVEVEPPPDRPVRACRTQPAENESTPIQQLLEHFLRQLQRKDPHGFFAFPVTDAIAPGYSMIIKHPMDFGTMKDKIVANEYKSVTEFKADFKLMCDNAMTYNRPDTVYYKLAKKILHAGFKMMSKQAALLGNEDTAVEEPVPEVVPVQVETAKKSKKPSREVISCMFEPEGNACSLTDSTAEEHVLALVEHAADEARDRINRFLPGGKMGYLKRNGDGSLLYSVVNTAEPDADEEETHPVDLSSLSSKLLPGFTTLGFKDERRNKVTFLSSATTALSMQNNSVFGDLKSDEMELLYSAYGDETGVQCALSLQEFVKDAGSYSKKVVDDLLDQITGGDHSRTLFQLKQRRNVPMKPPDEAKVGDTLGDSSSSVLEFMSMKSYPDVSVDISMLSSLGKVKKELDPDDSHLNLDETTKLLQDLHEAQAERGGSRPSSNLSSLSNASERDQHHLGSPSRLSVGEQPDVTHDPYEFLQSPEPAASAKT
As to the kind of experiment: BRD9 degradation, HiBiT-BRD9 KI HEK293 (LgBiT) cells, NanoGlo Lytic Endpoint assay (Assay Protocol 1). Format: cell-based. The following applies: BRD9 degradation; for Dmax / Dmax at 1 µM: HEK293; for Dmax at 1 µM: 1 μM compound at 6 h of treatment, read-out: Assay 1 Dmax. The procedure, abridged:
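HiBiT-tagged BRD9 knock-in HEK293 (LgBiT) cells exposed to compounds for 6 h at 37 °C, 5% CO2. Residual BRD9 measured by HiBiT lytic luminescence. % BRD9 remaining normalised to DMSO-treated cells (high) and no-cell wells (low).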
On the technique in general: HiBiT is a short tag that completes a luciferase, so light tracks the accessible tagged protein.

Experiment [2] addresses T1, BRD9. As to the kind of experiment: Degradation of BRD9 (IF), immunofluorescence in MV4-11 cells, 24 hours (Assay Protocol 2). Type of experiment: cell-based. Also on record: A suspension of MV4-11 cells (ATCC CRL-9591) was prepared; host or cells: MV4-11. The procedure, abridged: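 % BRD9 remaining, scaled between DMSO (high) and 100 nM CFT-8634 (low) control wells, derives from mean Alexa 647 contrast in central nuclei by high-content imaging. MV4-11 cells had 24 h compound exposure at 37° C. before PFA fixation, Triton permeabilisation and anti-BRD9 E4Q3F immunostaining.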

[3] abbreviates: Assay protocol 1, read-out: DC50.
Where [4] appears, read: Assay protocol 1, read-out: Dmax.
Setting [5] is: Assay protocol 2, BRD9 degradation, read-out: DC50.
Where [6] appears, read: MV4-11, Assay protocol 2, BRD9 degradation, read-out: Dmax.
Where [7] appears, read: Table 2, Assay Protocol 1, 6 h of treatment, read-out: Assay 1 DC50.
Setting [8] is: MV4-11, 24 h, Table 2, BRD9 degradation (IF), Assay Protocol 2, MV4-11 cells, read-out: Assay 2 DCmax.

For the compound `COc1cc(-c2cn(C)c(=O)c(C)c2C)cc(OC)c1CN1CCN(Cc2cccc3c2CCN(C(=O)/C(C#N)=C/C2CC(F)(F)C2)C3C)C2(CC2)C1` (mixture of isomers) [Compound B116], the half-maximal degradation concentration (DC50) was 1.25 to 10 nM at BRD9 [1] (setting [3]) and less than 1.25 nM on BRD9 [2] (setting [5]). Also, the Dmax at BRD9 [1] (setting [4]) and on BRD9 [2] (setting [6]) was greater than 75% throughout.
Take `COc1cc(-c2cn(C)c(=O)c(C)c2C)cc(OC)c1CN1CC2CC1CN2Cc1cccc2c1CCN(C(=O)/C(C#N)=C/C(C)(C)C)C2C` (mixture of isomers) [Compound A70, (E/Z)-2-(5-((5-(2,6-dimethoxy-4-(1,4,5-trimethyl-6-oxo-1,6-dihydropyridin-3-yl)benzyl)-2,5-diazabicyclo[2.2.1]heptan-2-yl)methyl)-1-methyl-1,2,3,4-tetrahydroisoquinoline-2-carbonyl)-4,4-dimethylpent-2-enenitrile]: the Dmax at 1 µM at BRD9 [1] (Table 2, Assay Protocol 1) fell in the range of 40 to 70%. The half-maximal degradation concentration (DC50) was 10 to 25 nM on BRD9 [1] (setting [7]) and less than 1.25 nM on BRD9 [2] (Table 2, BRD9 degradation (IF), Assay Protocol 2, MV4-11 cells, read-out: Assay 2 DC50). The Dmax at BRD9 [2] (setting [8]) lay in the range of 70 to 75%.
Consider `COc1cc(-c2cn(C)c(=O)c(C)c2C)cc(OC)c1CN1CCN(C(=O)[C@@H]2CN(C(=O)/C(C#N)=C/C(C)(C)C)C[C@H]2C(C)C)CC1` [Compound B212], for which the Dmax at BRD9 [1] (Table 4, determined according to Assay Protocol 1, read-out: Dmax^1) is 50 to 70%; at BRD9 [2] (MV4-11, Table 4, BRD9 degradation, determined according to Assay Protocol 2, read-out: Dmax^2) it was 50 to 70%. For the same compound, the DC50 at BRD9 [1] (Table 4, determined according to Assay Protocol 1, read-out: DC50^1) lay in the range of 25 to 200 nM; at BRD9 [2] (Table 4, BRD9 degradation, determined according to Assay Protocol 2, read-out: DC50^2), 25 to 200 nM.
On to `CCCC(c1cccc(C(=O)N2CCN(Cc3c(OC)cc(-c4cn(C)c(=O)c(C)c4C)cc3OC)CC2)c1)N(C)C(=O)/C(C#N)=C/c1nccs1` (mixture of isomers) [Compound B184, (E/Z)-2-cyano-N-(1-(3-(4-(2,6-dimethoxy-4-(1,4,5-trimethyl-6-oxo-1,6-dihydropyridin-3-yl)benzyl)piperazine-1-carbonyl)phenyl)butyl)-N-methyl-3-(thiazol-2-yl)acrylamide], for which the Dmax at BRD9 [1] (setting [4]) and at BRD9 [2] (setting [6]) was 40 to 70% in each case. Also, on BRD9 [2] (setting [5]), the DC50 lay within 1.25 to 10 nM.
`COc1cc(-c2cn(C)c(=O)c(C)c2C)cc(OC)c1CN1CCN(c2cccc3c2CCN(C(=O)/C(C#N)=C/c2cccc(Br)n2)C3C)CC1` (single isomer, unassigned) [Compound C28, (E/Z)-3-(6-bromopyridin-2-yl)-2-(5-(4-(2,6-dimethoxy-4-(1,4,5-trimethyl-6-oxo-1,6-dihydropyridin-3-yl)benzyl)piperazin-1-yl)-1-methyl-1,2,3,4-tetrahydroisoquinoline-2-carbonyl)acrylonitrile]: the Dmax on BRD9 [1] (setting [4]) fell in the range of 25 to 40%; on BRD9 [2] (setting [6]) it was 40 to 70%. For the same compound, the 50% degradation concentration (DC50) at BRD9 [2] (setting [5]) was 25 to 1000 nM.
In the case of `COc1cc(-c2cn(C)c(=O)c3cnccc23)cc(OC)c1CN1CCC(Oc2cccc3c2CCN(C(=O)/C(C#N)=C/C(C)(C)C)C3C)CC1` (mixture of isomers) [Compound A28, (E/Z)-2-(5-((1-(2,6-dimethoxy-4-(2-methyl-1-oxo-1,2-dihydro-2,7-naphthyridin-4-yl)benzyl)piperidin-4-yl)oxy)-1-methyl-1,2,3,4-tetrahydroisoquinoline-2-carbonyl)-4,4-dimethylpent-2-enenitrile], the Dmax at 1 µM at BRD9 [1] (Table 2, Assay Protocol 1) lay in the range of 40 to 70%. Besides, on BRD9 [1] (setting [7]), the 50% degradation concentration (DC50) was in the range of 1.25 to 10 nM. For the same compound, the Dmax at BRD9 [2] (setting [8]) fell in the range of 40 to 70%.
As to `COc1ccc([C@@H]2CN(C(=O)/C(C#N)=C/c3nccs3)C[C@H]2C(=O)N2CCN(Cc3c(OC)cc(-c4cn(C)c(=O)c(C)c4C)cc3OC)CC2)cc1` [Compound B27], the values for the Dmax at BRD9 [1] (setting [4]) and on BRD9 [2] (setting [6]) were 40 to 70% and greater than 75%, respectively. Further, the DC50 at BRD9 [2] (setting [5]) fell in the range of 1.25 to 10 nM.
With `COc1cc(-c2cn(C)c(=O)c(C)c2C)cc(OC)c1CN1CCN(Cc2cccc3c2CCN(C(=O)/C(C#N)=C/c2cc(C)on2)C3C)CC1` (mixture of isomers) [Compound B4, (E/Z)-2-(5-((4-(2,6-dimethoxy-4-(1,4,5-trimethyl-6-oxo-1,6-dihydropyridin-3-yl)benzyl)piperazin-1-yl)methyl)-1-methyl-1,2,3,4-tetrahydroisoquinoline-2-carbonyl)-3-(5-methylisoxazol-3-yl)acrylonitrile], the half-maximal degradation concentration (DC50) on BRD9 [1] (setting [3]) and at BRD9 [2] (setting [5]) was 1.25 to 10 nM throughout. The Dmax at BRD9 [1] (setting [4]) and on BRD9 [2] (setting [6]) was 40 to 70% each time.
As to `COc1cc(-c2cn(C)c(=O)c(C)c2C)cc(OC)c1CN1CCCN(Cc2cccc3c2CCN(C(=O)/C(C#N)=C/c2cccc(Br)n2)C3C)CC1` (mixture of isomers) [Compound B2, (E/Z)-3-(6-bromopyridin-2-yl)-2-(5-((4-(2,6-dimethoxy-4-(1,4,5-trimethyl-6-oxo-1,6-dihydropyridin-3-yl)benzyl)-1,4-diazepan-1-yl)methyl)-1-methyl-1,2,3,4-tetrahydroisoquinoline-2-carbonyl)acrylonitrile], the 50% degradation concentration (DC50) on BRD9 [1] (setting [3]) and on BRD9 [2] (setting [5]) was 1.25 to 10 nM throughout. The Dmax was greater than 75% on BRD9 [1] (setting [4]) and 70 to 75% at BRD9 [2] (setting [6]).
Regarding `COc1ccnc(/C=C(\C#N)C(=O)N2CCc3c(CN4CCN(Cc5c(OC)cc(-c6cn(C)c(=O)c(C)c6C)cc5OC)CC4)cccc3C2C)c1` (mixture of isomers) [Compound B52, (E/Z)-2-(5-((4-(2,6-dimethoxy-4-(1,4,5-trimethyl-6-oxo-1,6-dihydropyridin-3-yl)benzyl)piperazin-1-yl)methyl)-1-methyl-1,2,3,4-tetrahydroisoquinoline-2-carbonyl)-3-(4-methoxypyridin-2-yl)acrylonitrile], the DC50 at BRD9 [1] (setting [3]) is less than 1.25 nM; at BRD9 [2] (setting [5]), 25 to 1000 nM. Also, the Dmax was in the range of 70 to 75% at BRD9 [1] (setting [4]) and 40 to 70% on BRD9 [2] (setting [6]).
For `COc1cccc(/C=C(\C#N)C(=O)N2CCc3c(CN4CCN(Cc5c(OC)cc(-c6cn(C)c(=O)c(C)c6C)cc5OC)CC4)cccc3C2C)n1` (mixture of isomers) [Compound A67, (E/Z)-2-(5-((4-(2,6-dimethoxy-4-(1,4,5-trimethyl-6-oxo-1,6-dihydropyridin-3-yl)benzyl)piperazin-1-yl)methyl)-1-methyl-1,2,3,4-tetrahydroisoquinoline-2-carbonyl)-3-(6-methoxypyridin-2-yl)acrylonitrile], the Dmax at 1 µM on BRD9 [1] (Table 2, Assay Protocol 1) lay in the range of 40 to 70%. The DC50 on BRD9 [1] (setting [7]) is 1.25 to 10 nM. Besides, on BRD9 [2] (setting [8]), the Dmax fell in the range of 40 to 70%.
For the compound `COc1cc(-c2cn(C)c(=O)c3cnccc23)cc(OC)c1CN1CCN(Cc2cccc3c2CCN(C(=O)/C(C#N)=C/C(C)(C)C)[C@@H]3C)CC1` (single isomer, unassigned) [Compound A25, (E/Z)-2-(5-((4-(2,6-dimethoxy-4-(2-methyl-1-oxo-1,2-dihydro-2,7-naphthyridin-4-yl)benzyl)piperazin-1-yl)methyl)-1-methyl-1,2,3,4-tetrahydroisoquinoline-2-carbonyl)-4,4-dimethylpent-2-enenitrile], at BRD9 [1] (Table 2, Assay Protocol 1), the Dmax at 1 µM fell in the range of 40 to 70%. For the same compound, the DC50 at BRD9 [1] (setting [7]) was less than 1.25 nM. The Dmax at BRD9 [2] (setting [8]) was 40 to 70%.
On to `COc1cc(-c2cn(C)c(=O)c(C)c2C)cc(OC)c1CN(C)C1CCN(C(=O)/C(C#N)=C/C23CC(C2)C3)CC1` (mixture of isomers) [Compound B187, (E/Z)-3-(bicyclo[1.1.1]pentan-1-yl)-2-(4-((2,6-dimethoxy-4-(1,4,5-trimethyl-6-oxo-1,6-dihydropyridin-3-yl)benzyl)(methyl)amino)piperidine-1-carbonyl)acrylonitrile], for which the DC50 on BRD9 [1] (setting [3]) and at BRD9 [2] (setting [5]) was 1.25 to 10 nM throughout. For the same compound, the Dmax at BRD9 [1] (setting [4]) and on BRD9 [2] (setting [6]) was greater than 75% each time.
`COc1cc(-c2cn(C)c(=O)c(C)c2C)cc(OC)c1CN1CCN(Cc2cccc3c2CCN(C(=O)/C(C#N)=C/c2cccc(C)n2)C3C)CC1` (mixture of isomers) [Compound B24, (E/Z)-2-(5-((4-(2,6-dimethoxy-4-(1,4,5-trimethyl-6-oxo-1,6-dihydropyridin-3-yl)benzyl)piperazin-1-yl)methyl)-1-methyl-1,2,3,4-tetrahydroisoquinoline-2-carbonyl)-3-(6-methylpyridin-2-yl)acrylonitrile]: the 50% degradation concentration (DC50) on BRD9 [1] (setting [3]) was less than 1.25 nM; at BRD9 [2] (setting [5]) it was 1.25 to 10 nM. Besides, the Dmax at BRD9 [1] (setting [4]) and on BRD9 [2] (setting [6]) was 40 to 70% each time.
